Results as given in ChEMBL document CHEMBL1156005, “Non-nucleoside inhibitors of HCV polymerase NS5B. Part 3: synthesis and optimization studies of benzothiazine-substituted tetramic acids” (Bioorg Med Chem Lett, 2009).

Tests used:
Hepatitis C virus [1] = experiment: Ratio of EC50 for HCV 1a over EC50 for HCV 1b
[2] = Tmax in po dosed rat; assay type: ADME, organism-based; conditions: in vivo
Hepatitis C virus [3] = experiment: Selectivity ratio, EC50 for HCV 1b in presence of 40% human serum to EC50 for HCV 1b in presence of 5% fetal bovine serum; assay type: functional, Hepacivirus hominis, genotype 1b
[4] = Metabolic stability in rat liver microsomes; assay type: ADME, Microsome; conditions: read-out: Stability
Caco-2 = experiment: Efflux ratio of permeability from […] side in human Caco-2 cells after 21 days; assay type: ADME, cell-based; conditions: caco-2, 504 h
[5] = Clearance in rat at 2 mg/kg, iv; assay type: ADME, organism-based; design: dose 2 mg/kg, route intravenous; conditions: in vivo
Cytochrome P450 3A4 = Cytochrome P450 3A4 (Homo sapiens, UniProt P08684); experiment: Inhibition of CYP3A4 by time dependent inactivation assay; assay type: ADME
Chain of Cytochrome P450 3A4 (P08684 whole entry): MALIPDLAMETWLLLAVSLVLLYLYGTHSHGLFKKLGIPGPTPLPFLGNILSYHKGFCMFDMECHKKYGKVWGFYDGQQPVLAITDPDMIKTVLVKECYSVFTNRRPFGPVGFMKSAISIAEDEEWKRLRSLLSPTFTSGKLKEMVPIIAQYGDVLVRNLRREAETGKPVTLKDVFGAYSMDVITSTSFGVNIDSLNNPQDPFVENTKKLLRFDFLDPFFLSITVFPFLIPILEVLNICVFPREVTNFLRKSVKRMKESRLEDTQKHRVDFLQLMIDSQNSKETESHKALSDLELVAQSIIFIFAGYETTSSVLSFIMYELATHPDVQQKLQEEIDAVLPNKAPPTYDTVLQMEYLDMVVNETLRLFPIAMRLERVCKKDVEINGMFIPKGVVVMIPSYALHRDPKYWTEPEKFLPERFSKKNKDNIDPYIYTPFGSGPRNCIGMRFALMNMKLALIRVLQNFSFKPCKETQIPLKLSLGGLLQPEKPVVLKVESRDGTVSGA

Hepatitis C virus [6] = experiment: Antiviral activity against HCV 1b infected in human 2209-23 cells assessed as inhibition of virus RNA replication by renilla luciferase reporter gene assay in presence of 40% human serum; assay type: functional, organism-based, Hepacivirus hominis; conditions: genotype 1b
[7] = Permeability by PAMPA; assay type: ADME; conditions: read-out: permeability
[8] = AUC in rat at 5 mg/kg; assay type: ADME, organism-based; design: dose 5 mg/kg; conditions: plasma
Hepatitis C virus [9] = experiment: Antiviral activity against HCV 1b infected in human 2209-23 cells assessed as inhibition of virus RNA replication by renilla luciferase reporter gene assay in presence of 5% fetal bovine serum; assay type: functional, organism-based, Hepacivirus hominis; conditions: genotype 1b
[10] = Oral bioavailability in rat; assay type: ADME, organism-based; conditions: in vivo
Hepatitis C virus [11] = experiment: Antiviral activity against HCV 1b infected in human 2209-23 cells assessed as inhibition of virus RNA replication by renilla luciferase reporter gene assay; assay type: functional, organism-based, Hepacivirus hominis; conditions: genotype 1b
[12] = Cytotoxicity against human 2209-23 cells assessed as […] by WST-1 assay; assay type: cell-based
Genome polyprotein = Genome polyprotein (Hepatitis C virus genotype 1b (isolate Con1) (HCV), UniProt Q9WMX2); experiment: Inhibition of […] 1b con1 NS5B polymerase assessed as [3H]UTP incorporation into acid insoluble RNA product
Chain of Genome polyprotein (Q9WMX2 2420-3010 limits assumed): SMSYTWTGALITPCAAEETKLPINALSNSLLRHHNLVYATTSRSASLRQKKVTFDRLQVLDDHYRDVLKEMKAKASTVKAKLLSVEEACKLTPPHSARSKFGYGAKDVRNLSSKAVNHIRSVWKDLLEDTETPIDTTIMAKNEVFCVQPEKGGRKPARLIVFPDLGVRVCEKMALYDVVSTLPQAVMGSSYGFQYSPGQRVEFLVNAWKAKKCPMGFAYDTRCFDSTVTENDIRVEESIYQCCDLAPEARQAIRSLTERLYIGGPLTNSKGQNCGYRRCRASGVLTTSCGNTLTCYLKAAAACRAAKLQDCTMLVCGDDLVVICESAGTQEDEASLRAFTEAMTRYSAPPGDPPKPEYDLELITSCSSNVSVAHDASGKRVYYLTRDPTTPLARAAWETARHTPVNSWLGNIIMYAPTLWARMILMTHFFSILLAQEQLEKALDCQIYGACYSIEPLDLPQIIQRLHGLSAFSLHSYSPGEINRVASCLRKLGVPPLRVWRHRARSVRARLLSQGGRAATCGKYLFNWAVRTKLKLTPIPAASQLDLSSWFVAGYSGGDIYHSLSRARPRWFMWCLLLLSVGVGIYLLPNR

Tmax [2] [h]	microsomal CLint [4] [µL/min/mg]	Ratio (Caco-2)	clearance [5] [mL/min/kg]	inhibition (INH) (Cytochrome P450 3A4) [%]	EC50 (Hepatitis C virus [6]) [nM]	Papp [7] [×10⁻⁶ cm/s]	AUC [8] [ng·h/mL]	EC50 (Hepatitis C virus [9]) [nM]	bioavailability [10] [%]	EC50 (Hepatitis C virus [11]) [nM]	IC50 (Genome polyprotein) [nM]	SMILES	Ratio EC50 (Hepatitis C virus [1])	Ratio EC50 (Hepatitis C virus [3])	CC50 [12] [nM]
1.3	32	25	101	41	33	1.4	189	12	22	5	7	CC(C)(C)[C@H]1C(O)=C(C2=CS(=O)(=O)c3cc(NS(C)(=O)=O)ccc3N2)C(=O)N1Cc1ccc(F)cc1	4	2.7	> 50000
–	–	–	5	17.8	–	–	–	–	–	16	11	CC(C)(C)[C@H]1C(O)=C(C2=C(C(N)=O)S(=O)(=O)c3cc(NS(C)(=O)=O)ccc3N2)C(=O)N1Cc1ccc(F)cc1	4	–	> 50000
–	–	–	–	–	422	–	–	28	–	–	4	COc1cc(CN2C(=O)C(C3=CS(=O)(=O)c4cc(NS(C)(=O)=O)ccc4N3)=C(O)[C@@H]2C(C)(C)C)ccc1F	–	15.1	> 50000
–	–	–	–	20.5	–	–	–	–	–	–	–	CC(C)(CO)[C@H]1C(O)=C(C2=CS(=O)(=O)c3cc(NS(C)(=O)=O)ccc3N2)C(=O)N1Cc1ccc(F)cc1	–	–	–
–	–	–	–	–	226	–	–	35	–	–	13	CC(C)(C)[C@H]1C(O)=C(C2=CS(=O)(=O)c3cc(NS(C)(=O)=O)ccc3N2)C(=O)N1Cc1ccc(F)cc1F	4	6.5	> 50000
–	–	–	–	–	1720	–	–	201	–	–	42	CC(C)(C)[C@H]1C(O)=C(C2=CS(=O)(=O)c3cc(NS(C)(=O)=O)ccc3N2)C(=O)N1Cc1ccc(F)cn1	–	8.5	> 50000
–	–	–	–	0.4	–	–	–	–	–	16500	1800	CC(C)(C)[C@H]1C(O)=C(C2=CS(=O)(=O)c3cc([N+](=O)[O-])ccc3N2)C(=O)N1Cc1ccc(F)cc1	–	–	> 50000
–	–	–	–	15.1	–	–	–	–	–	20	4	CC(=O)C1=C(C2=C(O)[C@H](C(C)(C)C)N(Cc3ccc(F)cc3)C2=O)Nc2ccc(NS(C)(=O)=O)cc2S1(=O)=O	–	–	> 50000
–	–	–	–	10.9	–	–	–	–	–	6850	1200	CC(C)(C)[C@H]1C(O)=C(C2=CS(=O)(=O)c3cc(C#N)ccc3N2)C(=O)N1Cc1ccc(F)cc1	–	–	> 50000
–	84	–	86	41	163	0.98	–	9	–	–	5	CC(C)(C)[C@H]1C(O)=C(C2=CS(=O)(=O)c3cc(NS(C)(=O)=O)ccc3N2)C(=O)N1Cc1ccc(F)c(Cl)c1	–	18.1	> 50000
–	–	–	–	24.7	–	–	–	–	–	16	6	CC(C)(C)[C@H]1C(O)=C(C2=C(C#N)S(=O)(=O)c3cc(NS(C)(=O)=O)ccc3N2)C(=O)N1Cc1ccc(F)cc1	4	–	> 50000
–	–	–	–	–	660	–	–	30	–	–	5	CC(C)CCN1C(=O)C(C2=CS(=O)(=O)c3cc(NS(C)(=O)=O)ccc3N2)=C(O)[C@@H]1C(C)(C)C	–	22	> 50000
–	327	–	101	39	122	1.62	–	12	–	–	3	Cc1cc(CN2C(=O)C(C3=CS(=O)(=O)c4cc(NS(C)(=O)=O)ccc4N3)=C(O)[C@@H]2C(C)(C)C)ccc1F	4	10.2	> 50000
–	79	14	> 100	23	65	1.8	–	16	–	–	8	CC(C)(C)CCN1C(=O)C(C2=CS(=O)(=O)c3cc(NS(C)(=O)=O)ccc3N2)=C(O)[C@@H]1C(C)(C)C	–	4.1	> 50000
–	–	–	–	7.6	–	–	–	–	–	1870	338	CC(C)(C)[C@H]1C(O)=C(C2=CS(=O)(=O)c3cc(F)ccc3N2)C(=O)N1Cc1ccc(F)cc1	–	–	> 50000
–	–	–	–	5.7	–	–	–	–	–	–	–	CC(C)(C)[C@@H]1NC(=O)C(C2=CS(=O)(=O)c3cc(NS(C)(=O)=O)ccc3N2)=C1O	–	–	–
–	–	–	–	31	–	–	–	–	–	4	2	CC(C)(C)[C@H]1C(O)=C(C2=C(Cl)S(=O)(=O)c3cc(NS(C)(=O)=O)ccc3N2)C(=O)N1Cc1ccc(F)cc1	–	–	> 50000
–	–	–	–	21.9	–	–	–	–	–	78	10	CC1=C(C2=C(O)[C@H](C(C)(C)C)N(Cc3ccc(F)cc3)C2=O)Nc2ccc(NS(C)(=O)=O)cc2S1(=O)=O	–	–	> 50000
–	–	–	–	–	–	–	–	–	–	24	–	CCC(C)(C)[C@H]1C(O)=C(C2=CS(=O)(=O)c3cc(NS(C)(=O)=O)ccc3N2)C(=O)N1Cc1ccc(F)c(C)c1	–	–	–
–	–	11	144	19	139	1.8	–	32	–	–	8	CC(C)(C)[C@H]1C(O)=C(C2=CS(=O)(=O)c3cc(NS(C)(=O)=O)ccc3N2)C(=O)N1Cc1ccccc1	4	4.3	> 50000
–	–	–	36	8.5	–	–	–	–	–	36	9	CC(C)(C)[C@H]1C(O)=C(C2=CS(=O)(=O)c3cc(NS(C)(=O)=O)cc(F)c3N2)C(=O)N1Cc1ccc(F)cc1	4	–	> 50000
